Test results: patent US10342804B2, “Steroid compound for use in the treatment of hepatic encephalopathy” (Umecrine Cognition AB, priority 2014, dated 2019)

Tests used:
Format in all cases: in vivo, rat
hyperammonemic rats [1] = assay: Spatial learning in the Radial maze, chronic hyperammonemia model (Example 2); settings: 20 mg/kg s.c. once daily, 6th-7th week of treatment
From the text: (§1) In this study an animal model of chronic hyperammonemia was used that reproduces many of the cognitive and motor alterations present in hepatic encephalopathy. Rats were fed with ammonia in their food and after two weeks with ammonia enriched food they developed symptoms of hepatic encephalopathy. The beam walking test was made during the 3rd and 4th week of 3α-ethynyl-3β-hydroxyandrostan-17-one oxime treatment while the Morris Water maze test was made during 4th-5th week of 3α-ethynyl-3β-hydroxyandrostan-17-one oxime treatment and the Radial maze test was made during 6th-7th week of 3α-ethynyl-3β-hydroxyandrostan-17-one oxime treatment.
(§2) The study was divided into two series with animals (male Wistar rats), each series included the following groups; Controls treated with vehicle (CV, n=8 per series), Controls treated with 3α-ethynyl-3β-hydroxyandrostan-17-one oxime (C+GAM, n=8 per series), hyperammonemic rats treated with vehicle (HAV, n=8 per series), hyperammonemic rats treated with 3α-ethynyl-3β-hydroxyandrostan-17-one oxime (HA+GAM, n=8 per series). […]
Training in the radial maze was composed of five blocks of three trials each, performed on ten consecutive days. […] The number of spatial reference errors and working memory were calculated and expressed as number of reference and working errors per block. […]

PCS rats = assay: Morris water maze memory test, PCS rats (Example 9)
Protocol: Male Wistar rats (220-240 g) were anesthetized with isoflurane, and an end-to side porta-caval anastomosis was performed as described by Lee and Fisher (Surgery, 1961, 50, 668-672).
Rats that were subjected to the porta-caval anastomosis procedure are herein referred to as “PCS rats”.
3α-ethynyl-3β-hydroxyandrostan-17-one oxime in sesame oil was administered by subcutaneous injections in the back of the rats, once daily. Two different sets of experiments were performed in hyperammonemic rats. In the first set four groups of rats were used: 1) control rats injected with vehicle; 2) hyperammonemic rats injected with vehicle; 3) control rats injected with 20 mg/Kg of 3α-ethynyl-3β-hydroxyandrostan-17-one oxime and 4) hyperammonemic rats injected with 20 mg/Kg of 3α-ethynyl-3β-hydroxyandrostan-17-one oxime. […]
The test was carried out as described by Monfort et al. (European Journal of Neuroscience, 2007, 25, 2103-2111) using a circular pool (160 cm diameter, 40 cm height) arbitrarily divided into four quadrants. […] The time needed to find the hidden platform was recorded manually and used as a measure of learning of the task.
Spatial memory was assessed 24 hours later by removing the platform and measuring the time spent by the rat in the quadrant where the platform was.

hyperammonemic rats [2] = assay: Motor coordination in the beam walking test, chronic hyperammonemia model (Example 4); settings: 20 mg/kg s.c. once daily, 3rd-4th week of treatment
From the text: as §1, §2
In the beam-walking test rats are trained to traverse an elevated, narrow beam to reach an enclosed escape platform. […] The parameters of motor coordination measured are: footslips (or foot faults) and latency to traverse the beam. […] The number of times the left or right hind paw slip off the beam was recorded for each trial.

[3] = Concentrations in plasma and brain tissue after exogenous administration, LC-MS (Example 5); settings: for Unbound brain concentration: 1-2 h after last treatment, seven weeks daily 20 mg/kg s.c.
From the text: The study was divided into two series with animals (male Wistar rats), each series included the following groups; Controls treated with vehicle (CV, n=8 per series), Controls treated with 3α-ethynyl-3β-hydroxyandrostan-17-one oxime (C+GAM, n=8 per series), hyperammonemic rats treated with vehicle (HAV, n=8 per series), hyperammonemic rats treated with 3α-ethynyl-3β-hydroxyandrostan-17-one oxime (HA+GAM, n=8 per series). The once daily treatment with 3α-ethynyl-3β-hydroxyandrostan-17-one oxime at 20 mg/kg or with vehicle was performed with subcutaneous injections of 1 ml/kg around 9 a.m. Treatment started one week after starting with the ammonium containing diet and continued for the whole experimental period.
Blood was obtained from the tail of the rats (from Example 2) in the end of second week of ammonia treatment and first week of 3α-ethynyl-3β-hydroxyandrostan-17-one oxime treatment and also from the neck during the animal sacrifice. To obtain the plasma it was added EDTA […] and centrifuged at 1500 r.p.m during 5 minutes.
Rats were sacrificed by decapitation. One half of the brain including the cerebellum was collected and conserved at −80° C. for determination of 3α-ethynyl-3β-hydroxyandrostan-17-one oxime. Different brain areas (cerebellum, cortex, hippocampus and striatum) were dissected and conserved at −80° C. for possible determination of GAMS.
Collected brain and plasma samples were analyzed for 3α-ethynyl-3β-hydroxyandrostan-17-one oxime concentrations. Plasma and brain samples were thawed at room temperature. Plasma was protein-precipitated with a 3-fold volume with acetonitrile and brain tissue was homogenized with a 1:4 ratio of tissue:PBS (pH 7.4) and then extracted with a 2-fold volume of methanol:acetonitrile (1:1) for 20 min during sonication. Thereafter samples were shaken and centrifuged for 10 min at 10 000×g (Heraeus Pico 17 centrifuge).
The supernatant was then diluted with an equal volume of PBS and analyzed. Some samples were reanalyzed as 10-fold dilutions due to too high concentration of 3α-ethynyl-3β-hydroxyandrostan-17-one oxime. […]

SMILES: C#C[C@]1(O)CC[C@@]2(C)C(CC[C@@H]3[C@@H]2CC[C@]2(C)/C(=N\O)CC[C@@H]32)C1 (stereo partly drawn) [3α-ethynyl-3β-hydroxyandrostan-17-one oxime]
- Spatial learning/memory in the Radial maze (working errors) (hyperammonemic rats [1]): completely restored
- Percentage of time spent in the correct quadrant, Morris water maze memory test (PCS rats; 0.7 mg/kg): 34±4%
- Percentage of time spent in the correct quadrant, Morris water maze memory test (PCS rats; 2.5 mg/kg): 39±3%
- Motor in-coordination in the beam-walking test (slips) (hyperammonemic rats [2]): completely reversed motor in-coordination
- Unbound brain concentration ([3]; HA rats): 106 ± 15.4 nmol/kg
- Unbound brain concentration ([3]; control rats): 91 ± 4.1 nmol/kg
- Total concentration in plasma, 23 hours vs 4 hours after injection ([3]; treatment day five, 20 mg/kg s.c., control and hyperammonemic rats): lower 23 hours after injection than 4 hours after injection
